Common to all, as to format: cell-based
Test [1] has as its system S. aureus MP-12. Briefly: Broth dilution MIC determination (CLSI), S. aureus MP-12. The note with it: Staphylococcus aureus, MP12; strain MP-12, broth dilution. (In general: Broth dilution looks for growth in wells or tubes with falling amounts of substance.)
In test [2] the test system is E. coli MP-4. Put plainly: Broth dilution MIC determination (CLSI), E. coli MP-4. The note with it: Escherichia coli, MP4; strain MP-4, broth dilution; read-out: MIC E. coli MP-4.
The test system of test [3] is K. pneumoniae MP-546. Briefly: Broth dilution MIC determination (CLSI), K. pneumoniae MP-546. The conditions noted are these: Klebsiella pneumoniae, MP546; strain MP-546, broth dilution.
The test system of test [4] is P. aeruginosa MP-3. Briefly: Broth dilution MIC determination (CLSI), P. aeruginosa MP-3. The conditions noted are these: Pseudomonas aeruginosa, MP3; strain MP-3, broth dilution.
Test [5] relates to A. baumannii MP-15. Briefly: Broth dilution MIC determination (CLSI), A. baumannii MP-15. The conditions noted are these: Acinetobacter baumannii, MP15; strain MP-15, broth dilution; read-out: MIC A. baumanii MP-15.

14 compounds from patent US20220177508A1, “C10-Cyclic Substituted 13-Membered Macrolides and Uses Thereof” (Zikani Therapeutics, Inc., priority 2018, published 2022) can be followed below.

Converted amounts (≈) assume the structure as drawn.

As usually defined, the MIC is the smallest concentration in the dilution series that meets the test's criterion for growth inhibition.

With `CO[C@]1(C)C[C@@H](C)CN(C)[C@@H]([C@H]2CC[C@H](N(C)C(=O)CNC3CC3)CC2)COC(=O)C(C)(C)C(=O)[C@H](C)[C@H]1O[C@@H]1O[C@H](C)C[C@H](N(C)C)[C@H]1O` [Compound 180, 2-(cyclopropylamino)-N-((1S,4r)-4-((3S,6R,8R,9R,10R)-9-(((2S,3R,4S,6R)-4-(dimethylamino)-3-hydroxy-6-methyltetrahydro-2H-pyran-2-yl)oxy)-8-methoxy-4,6,8,10,12,12-hexamethyl-11,13-dioxo-1-oxa-4-azacyclotridecan-3-yl)cyclohexyl)-N-methylacetamide], the MIC was greater than 32 µg/mL in test [1]; 4 to 32 µg/mL (≈ 5.64 to 45.1 µM) in test [2]; greater than 32 µg/mL in test [3]; greater than 32 µg/mL in test [4]; greater than 32 µg/mL in test [5].

On to `CO[C@]1(C)C[C@@H](C)CN(C)[C@H](c2ccc(Br)cc2)COC(=O)C(C)(C)C(=O)[C@H](C)[C@H]1O[C@@H]1O[C@H](C)C[C@H](N(C)C)[C@H]1O` [Compound 33, (3R,6R,8R,9R,10R)-3-(4-bromophenyl)-9-(((2S,3R,4S,6R)-4-(dimethylamino)-3-hydroxy-6-methyltetrahydro-2H-pyran-2-yl)oxy)-8-methoxy-4,6,8,10,12,12-hexamethyl-1-oxa-4-azacyclotridecane-11,13-dione], for which the MIC in test [1] is greater than 32 µg/mL; in test [2], 4 to 32 µg/mL (≈ 6.1 to 48.8 µM); in test [3], greater than 32 µg/mL; in test [4], greater than 32 µg/mL; in test [5], greater than 32 µg/mL.

Take `CO[C@]1(C)C[C@@H](C)CN(C)[C@@H]([C@@H]2CCCN(C)C2)COC(=O)C(C)(C)C(=O)[C@H](C)[C@H]1O[C@@H]1O[C@H](C)C[C@H](N(C)C)[C@H]1O` [Compound 23, (3S,6R,8R,9R,10R)-9-(((2S,3R,4S,6R)-4-(dimethylamino)-3-hydroxy-6-methyltetrahydro-2H-pyran-2-yl)oxy)-8-methoxy-4,6,8,10,12,12-hexamethyl-3-((R)-1-methylpiperidin-3-yl)-1-oxa-4-azacyclotridecane-11,13-dione]: the MIC in test [1] was greater than 32 µg/mL; in test [2] it was 4 to 32 µg/mL (≈ 6.69 to 53.5 µM); in test [3], 4 to 32 µg/mL (≈ 6.69 to 53.5 µM); in test [4], greater than 32 µg/mL; in test [5] it was greater than 32 µg/mL.

`CO[C@]1(C)C[C@@H](C)CN(C(C)=O)[C@H](C2CCN(C(C)C)CC2)COC(=O)C(C)(C)C(=O)[C@H](C)[C@H]1O[C@@H]1O[C@H](C)C[C@H](N(C)C)[C@H]1O` [Compound 174, (3R,6R,8R,9R,10R)-4-Acetyl-9-(((2S,3R,4S,6R)-4-(dimethylamino)-3-hydroxy-6-methyltetrahydro-2H-pyran-2-yl)oxy)-3-(1-isopropylpiperidin-4-yl)-8-methoxy-6,8,10,12,12-pentamethyl-1-oxa-4-azacyclotridecane-11,13-dione]: the MIC in test [1], in test [2], in test [3], in test [4] and in test [5] was greater than 32 µg/mL throughout.

For the compound `CO[C@]1(C)C[C@@H](C)CN(C)[C@H](C2CN(Cc3cn(C)cn3)C2)COC(=O)C(C)(C)C(=O)[C@H](C)[C@H]1O[C@@H]1O[C@H](C)C[C@H](N(C)C)[C@H]1O` [Compound 173, (3R,6R,8R,9R,10R)-9-(((2S,3R,4S,6R)-4-(dimethylamino)-3-hydroxy-6-methyltetrahydro-2H-pyran-2-yl)oxy)-8-methoxy-4,6,8,10,12,12-hexamethyl-3-(1-((1-methyl-1H-imidazol-4-yl)methyl)azetidin-3-yl)-1-oxa-4-azacyclotridecane-11,13-dione], the MIC was greater than 32 µg/mL in test [1]; 4 to 32 µg/mL (≈ 6.16 to 49.2 µM) in test [2]; greater than 32 µg/mL in test [3]; greater than 32 µg/mL in test [4]; greater than 32 µg/mL in test [5].

On to `CCCN1C[C@H](C)C[C@@](C)(OC)[C@H](O[C@@H]2O[C@H](C)C[C@H](N(C)C)[C@H]2O)[C@@H](C)C(=O)C(C)(C)C(=O)OC[C@H]1C1CN(CC(C)C)C1` [Compound 105, (3R,6R,8R,9R,10R)-9-(((2S,3R,4S,6R)-4-(dimethylamino)-3-hydroxy-6-methyltetrahydro-2H-pyran-2-yl)oxy)-3-(1-isobutylazetidin-3-yl)-8-methoxy-6,8,10,12,12-pentamethyl-4-propyl-1-oxa-4-azacyclotridecane-11,13-dione], for which the MIC in test [1] was greater than 32 µg/mL; in test [2], 4 to 32 µg/mL (≈ 6.25 to 50 µM); in test [3], greater than 32 µg/mL; in test [4] it was greater than 32 µg/mL; in test [5] it was greater than 32 µg/mL.

Regarding `CO[C@]1(C)C[C@@H](C)CN(C)[C@@H]([C@H]2CCN(C(C)=O)C2)COC(=O)C(C)(C)C(=O)[C@H](C)[C@H]1O[C@@H]1O[C@H](C)C[C@H](N(C)C)[C@H]1O` [Compound 140, (3S,6R,8R,9R,10R)-3-((S)-1-acetylpyrrolidin-3-yl)-9-(((2S,3R,4S,6R)-4-(dimethylamino)-3-hydroxy-6-methyltetrahydro-2H-pyran-2-yl)oxy)-8-methoxy-4,6,8,10,12,12-hexamethyl-1-oxa-4-azacyclotridecane-11,13-dione], the MIC in test [1] was greater than 32 µg/mL; in test [2] it was 4 to 32 µg/mL (≈ 6.54 to 52.3 µM); in test [3], greater than 32 µg/mL; in test [4] it was greater than 32 µg/mL; in test [5] it was greater than 32 µg/mL.

With `CO[C@]1(C)C[C@@H](C)CN[C@H](c2ccccc2)COC(=O)[C@H](C)C(=O)[C@H](C)[C@H]1O[C@@H]1OC(C)CC(N(C)C)C1O` (stereo partly shown) [Compound 204], the MIC in test [1], in test [2], in test [3], in test [4] and in test [5] was greater than 32 µg/mL each time.

For `CO[C@]1(C)C[C@@H](C)CN(C)[C@H](C2CCN(C(C)C)CC2)[C@H](C)OC(=O)C(C)(C)C(=O)[C@H](C)[C@H]1O[C@@H]1O[C@H](C)C[C@H](N(C)C)[C@H]1O` [Compound 147, (2S,3R,6R,8R,9R,10R)-9-(((2S,3R,4S,6R)-4-(dimethylamino)-3-hydroxy-6-methyltetrahydro-2H-pyran-2-yl)oxy)-3-(1-isopropylpiperidin-4-yl)-8-methoxy-2,4,6,8,10,12,12-heptamethyl-1-oxa-4-azacyclotridecane-11,13-dione], the MIC in test [1] is greater than 32 µg/mL; in test [2], 4 to 32 µg/mL (≈ 6.25 to 50 µM); in test [3], 4 to 32 µg/mL (≈ 6.25 to 50 µM); in test [4], greater than 32 µg/mL; in test [5], greater than 32 µg/mL.

Consider `CO[C@]1(C)C[C@@H](C)CN(C)[C@H](C2CN(C(=O)CN3CC(F)(F)C3)C2)COC(=O)C(C)(C)C(=O)[C@H](C)[C@H]1O[C@@H]1O[C@H](C)C[C@H](N(C)C)[C@H]1O` [Compound 154, (3R,6R,8R,9R,10R)-3-(1-(2-(3,3-difluoroazetidin-1-yl)acetyl)azetidin-3-yl)-9-(((2S,3R,4S,6R)-4-(dimethylamino)-3-hydroxy-6-methyltetrahydro-2H-pyran-2-yl)oxy)-8-methoxy-4,6,8,10,12,12-hexamethyl-1-oxa-4-azacyclotridecane-11,13-dione], for which the MIC in test [1] is 4 to 32 µg/mL (≈ 5.81 to 46.5 µM); in test [2] it was less than 4 µg/mL; in test [3] it was 4 to 32 µg/mL (≈ 5.81 to 46.5 µM); in test [4], greater than 32 µg/mL; in test [5] it was greater than 32 µg/mL.

Turning to `CO[C@]1(C)C[C@@H](C)CN(C)[C@H]([C@@H]2CCCN2)COC(=O)C(C)(C)C(=O)[C@H](C)[C@H]1O[C@@H]1O[C@H](C)C[C@H](N(C)C)[C@H]1O` [Compound 65, (3R,6R,8R,9R,10R)-9-(((2S,3R,4S,6R)-4-(dimethylamino)-3-hydroxy-6-methyltetrahydro-2H-pyran-2-yl)oxy)-8-methoxy-4,6,8,10,12,12-hexamethyl-3-((S)-pyrrolidin-2-yl)-1-oxa-4-azacyclotridecane-11,13-dione], the MIC in test [1] is greater than 32 µg/mL; in test [2], 4 to 32 µg/mL (≈ 7.02 to 56.2 µM); in test [3], greater than 32 µg/mL; in test [4], greater than 32 µg/mL; in test [5], greater than 32 µg/mL.

In the case of `CO[C@]1(C)C[C@@H](C)CN(C)[C@H](C2CN(CC(C)C)C2)COC(=O)C(C)(C)C(=O)[C@H](C)[C@H]1O[C@@H]1O[C@H](C)C[C@H](N(C)C)[C@H]1O` [Compound 112], the MIC was 4 to 32 µg/mL (≈ 6.54 to 52.3 µM) in test [1]; less than 4 µg/mL in test [2]; less than 4 µg/mL in test [3]; greater than 32 µg/mL in test [4]; 4 to 32 µg/mL (≈ 6.54 to 52.3 µM) in test [5].

Turning to `CO[C@]1(C)C[C@@H](C)CN(C)[C@@H](C2CN(CC(C)C)C2)COC(=O)C(C)(C)C(=O)[C@H](C)[C@H]1O[C@@H]1O[C@H](C)C[C@H](N(C)C)[C@H]1O` [Compound 81, (3S,6R,8R,9R,10R)-9-(((2S,3R,4S,6R)-4-(dimethylamino)-3-hydroxy-6-methyltetrahydro-2H-pyran-2-yl)oxy)-3-(1-isobutylazetidin-3-yl)-8-methoxy-4,6,8,10,12,12-hexamethyl-1-oxa-4-azacyclotridecane-11,13-dione], the MIC in test [1] was greater than 32 µg/mL; in test [2], less than 4 µg/mL; in test [3], 4 to 32 µg/mL (≈ 6.54 to 52.3 µM); in test [4] it was greater than 32 µg/mL; in test [5], greater than 32 µg/mL.

On to `CO[C@]1(C)C[C@@H](C)CN(C)[C@H]([C@@H]2CCN(C(=O)CN(C)C)C2)COC(=O)C(C)(C)C(=O)[C@H](C)[C@H]1O[C@@H]1O[C@H](C)C[C@H](N(C)C)[C@H]1O` [Compound 148, (3R,6R,8R,9R,10R)-9-(((2S,3R,4S,6R)-4-(Dimethylamino)-3-hydroxy-6-methyltetrahydro-2H-pyran-2-yl)oxy)-3-((R)-1-(dimethylglycyl)pyrrolidin-3-yl)-8-methoxy-4,6,8,10,12,12-hexamethyl-1-oxa-4-azacyclotridecane-11,13-dione], for which the MIC in test [1] is greater than 32 µg/mL; in test [2], less than 4 µg/mL; in test [3], 4 to 32 µg/mL (≈ 6.11 to 48.9 µM); in test [4], greater than 32 µg/mL; in test [5], greater than 32 µg/mL.
